Like-named read-outs stand apart in the source and are kept apart here. Numbered stars: 1 amine (or outer) side, 2 acyl side, 3 side chain; on linkers, the order of the positions; unused ones are H or OH. Square brackets hold non-standard residues; d marks the D form. Side chains are listed from the residue outwards. Peptide text beside a SMILES is read from it. * marks the point of attachment. C18 diacid = O=C(O)CCCCCCCCCCCCCCCCC(=O)*; γGlu = O=C(O)[C@H](CCC(=O)[*:2])N[*:1]; Palmitoyl = CCCCCCCCCCCCCCCC(=O)*; αMeF = C[C@](N)(Cc1ccccc1)C(=O)O; αMeK = C[C@](N)(CCCCN)C(=O)O; αMeS = C[C@](N)(CO)C(=O)O; AEEA = NCCOCCOCC(=O)O; Aib = CC(C)(N)C(=O)O
Columns and labels:
Format in all cases: cell-based
[1] = biological target: T1, human glucagon receptor (GCGR) (Homo sapiens, UniProt P47871); assay: cAMP assay, human GCGR cells; conditions: cAMP assay
T1 construct: expressed in transfected cells
T1 sequence (P47871 26-477): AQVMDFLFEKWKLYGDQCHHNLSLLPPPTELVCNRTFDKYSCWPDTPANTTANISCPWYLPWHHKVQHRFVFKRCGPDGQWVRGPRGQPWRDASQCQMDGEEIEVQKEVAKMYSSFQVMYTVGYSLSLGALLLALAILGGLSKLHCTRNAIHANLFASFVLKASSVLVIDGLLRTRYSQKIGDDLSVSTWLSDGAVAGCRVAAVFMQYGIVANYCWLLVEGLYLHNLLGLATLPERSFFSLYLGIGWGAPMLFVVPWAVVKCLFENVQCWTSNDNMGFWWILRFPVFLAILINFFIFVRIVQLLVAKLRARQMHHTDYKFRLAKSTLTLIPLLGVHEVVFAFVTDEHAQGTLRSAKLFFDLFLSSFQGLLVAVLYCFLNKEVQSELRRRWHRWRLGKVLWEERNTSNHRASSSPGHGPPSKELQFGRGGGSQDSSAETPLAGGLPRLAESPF
Procedure, shortened: (§1)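 Peptide-stimulated cAMP measured by two-step HTRF after a 30 min room-temperature incubation with receptor-expressing cells (hGLP-1R, hGIPR at 1×10^5 cells/ml; hGCGR at 2×10^5 cells/ml). Duplicate dilutions; EC50 from 4-parameter logistic fit of % Delta F.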

[2] = biological target: T2, GLP-1R (INS1e assay) (Rattus norvegicus, UniProt P32301); assay: INS1e assay, cAMP activity at GLP-1R; conditions: mono-lipidated peptides
T2 construct: endogenous in cells; host or cells: INS-1E cells
T2 sequence (P32301 22-463): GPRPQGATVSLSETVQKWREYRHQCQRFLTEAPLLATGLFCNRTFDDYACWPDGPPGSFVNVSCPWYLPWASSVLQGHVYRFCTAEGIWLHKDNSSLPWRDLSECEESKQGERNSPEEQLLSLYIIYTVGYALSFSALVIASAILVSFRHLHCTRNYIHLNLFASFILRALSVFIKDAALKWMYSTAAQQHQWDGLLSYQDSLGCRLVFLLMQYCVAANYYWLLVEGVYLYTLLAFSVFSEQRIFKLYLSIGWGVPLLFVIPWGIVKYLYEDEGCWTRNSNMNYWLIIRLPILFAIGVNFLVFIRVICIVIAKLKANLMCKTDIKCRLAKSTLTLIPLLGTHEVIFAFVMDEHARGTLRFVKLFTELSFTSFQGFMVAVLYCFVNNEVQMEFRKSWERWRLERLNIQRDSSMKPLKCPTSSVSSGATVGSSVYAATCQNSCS
Procedure, shortened: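 cAMP was quantified by two-step HTRF, using anti-cAMP cryptate donor and cAMP-d2 acceptor, each diluted 1/20 in conjugate and lysis buffer. EC50 values of the synthetic peptides were derived from the cAMP readout.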

[3] = biological target: T3, human GLP-1 receptor (GLP-1R) (Homo sapiens, UniProt P43220); assay: cAMP assay, human GLP-1R cells
T3 construct: expressed in transfected cells
T3 sequence (P43220 24-463): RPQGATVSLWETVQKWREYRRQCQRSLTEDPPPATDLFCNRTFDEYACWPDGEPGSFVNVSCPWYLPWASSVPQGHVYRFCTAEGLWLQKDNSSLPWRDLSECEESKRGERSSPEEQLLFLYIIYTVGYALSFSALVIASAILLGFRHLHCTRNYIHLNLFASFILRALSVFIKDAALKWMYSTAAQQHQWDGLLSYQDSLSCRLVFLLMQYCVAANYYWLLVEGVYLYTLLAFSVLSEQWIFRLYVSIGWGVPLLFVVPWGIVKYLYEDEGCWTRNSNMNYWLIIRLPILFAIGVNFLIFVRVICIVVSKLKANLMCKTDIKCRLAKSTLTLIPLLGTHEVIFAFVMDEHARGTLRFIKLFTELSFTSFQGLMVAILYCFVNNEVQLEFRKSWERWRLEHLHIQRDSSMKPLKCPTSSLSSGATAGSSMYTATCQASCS
Procedure, shortened: as §1

[4] = biological target: T4, human glucose-dependent insulinotropic peptide receptor (GIPR) (Homo sapiens, UniProt P48546); assay: cAMP assay, human GIPR cells; conditions: cAMP assay
T4 construct: expressed in transfected cells
T4 sequence (P48546 22-466): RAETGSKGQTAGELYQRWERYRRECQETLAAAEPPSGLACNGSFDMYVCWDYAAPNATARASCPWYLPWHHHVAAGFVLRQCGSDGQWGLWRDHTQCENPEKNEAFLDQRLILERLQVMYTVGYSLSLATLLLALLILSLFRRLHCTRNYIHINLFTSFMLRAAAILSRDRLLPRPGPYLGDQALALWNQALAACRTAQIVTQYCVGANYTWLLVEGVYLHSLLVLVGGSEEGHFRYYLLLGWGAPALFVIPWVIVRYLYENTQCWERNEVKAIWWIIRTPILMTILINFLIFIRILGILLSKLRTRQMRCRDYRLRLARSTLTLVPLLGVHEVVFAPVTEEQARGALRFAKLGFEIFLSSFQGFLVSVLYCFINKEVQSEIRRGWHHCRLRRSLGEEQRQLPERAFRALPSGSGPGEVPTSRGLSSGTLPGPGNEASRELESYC
Procedure, shortened: as §1

[5] = first determination (n1), read-out: Primary assay EC50 Gluc-R (n1)
[6] = second determination (n2), read-out: Primary assay EC50 Gluc-R (n2)
[7] = mean of n1 and n2, read-out: INS1e assay EC50 Mean pM GLP-1R
[8] = replicate n1, read-out: INS1e assay EC50 GLP-1R n1
[9] = replicate n2, read-out: INS1e assay EC50 GLP-1R n2
[10] = cAMP assay, first determination (n1), read-out: Primary assay EC50 GLP-1R n1
[11] = cAMP assay, second determination (n2), read-out: Primary assay EC50 GLP-1R n2
[12] = mean of n1 and n2, read-out: Mean pM GLP-1R
[13] = first determination (n1), read-out: Primary assay EC50 GIP-R (n1)
[14] = second determination (n2), read-out: Primary assay EC50 GIP-R (n2)

EC50 [1, 5] [pM]	EC50 [1, 6] [pM]	EC50 [2, 7] [pM]	EC50 [2, 8] [pM]	EC50 [2, 9] [pM]	EC50 [3, 10] [pM]	EC50 [3, 11] [pM]	EC50 [3, 12] [pM]	EC50 [4, 13] [pM]	EC50 [4, 14] [pM]	SMILES
≥ 28000	≥ 28000	65	45.3	84.5	1.3	1.7	1.5	≥ 28000	≥ 28000	CCCCCCCCCCCCCCCC(=O)N[C@@H](CCC(=O)NCCCC[C@H](NC(=O)[C@](C)(Cc1ccccc1)NC(=O)[C@H](CO)NC(=O)[C@](C)(CO)NC(=O)[C@@H](NC(=O)[C@H](CC(=O)O)NC(=O)[C@H](CO)NC(=O)[C@@H](NC(=O)[C@](C)(Cc1ccccc1)NC(=O)[C@H](CO)NC(=O)CNC(=O)[C@H](CCC(=O)O)NC(=O)C(C)(C)NC(=O)[C@@H](N)Cc1c[nH]cn1)[C@@H](C)O)C(C)C)C(=O)N[C@@H](CCC(=O)O)C(=O)NCC(=O)N[C@@H](CCC(=O)O)C(=O)N[C@@H](C)C(=O)N[C@@H](C)C(=O)N[C@@](C)(CCCCN)C(=O)N[C@@H](CCC(=O)O)C(=O)N[C@@](C)(Cc1ccccc1)C(=O)N[C@H](C(=O)N[C@@H](C)C(=O)N[C@@](C)(Cc1ccccc1)C(=O)N[C@H](C(=O)N[C@H](C(=O)N[C@@](C)(CCCCN)C(=O)NCC(=O)NCC(N)=O)C(C)C)C(C)C)[C@@H](C)CC)C(=O)O [compound 86] (H-H[Aib]EGS[αMeF]TSDV[αMeS]S[αMeF]K([γGlu-Palmitoyl])EGEAA[αMeK]E[αMeF]IA[αMeF]VV[αMeK]GG-NH2)
≥ 26000	≥ 25600	331	391	270	5.9	–	–	≥ 26000	≥ 25600	CC[C@H](C)[C@H](NC(=O)[C@](C)(Cc1ccccc1)NC(=O)[C@H](CCC(=O)O)NC(=O)[C@](C)(CCCCN)NC(=O)[C@H](C)NC(=O)[C@H](C)NC(=O)[C@H](CCC(=O)O)NC(=O)CNC(=O)[C@H](CCC(=O)O)NC(=O)[C@H](CC(C)C)NC(=O)[C@](C)(Cc1ccccc1)NC(=O)[C@H](CO)NC(=O)[C@](C)(CO)NC(=O)[C@@H](NC(=O)[C@H](CC(=O)O)NC(=O)[C@H](CO)NC(=O)[C@@H](NC(=O)[C@](C)(Cc1ccccc1)NC(=O)[C@H](CO)NC(=O)CNC(=O)[C@H](CCC(=O)O)NC(=O)C(C)(C)NC(=O)[C@@H](N)Cc1c[nH]cn1)[C@@H](C)O)C(C)C)C(=O)N[C@@H](C)C(=O)N[C@@H](CCCCNC(=O)COCCOCCNC(=O)COCCOCCNC(=O)CC[C@H](NC(=O)CCCCCCCCCCCCCCCCC(=O)O)C(=O)O)C(=O)N[C@H](C(=O)N[C@H](C(=O)N[C@@](C)(CCCCN)C(=O)NCC(=O)NCC(N)=O)C(C)C)C(C)C [compound 104]
≥ 25100	≥ 25100	3160	2570	3740	19.7	14	16.9	≥ 25100	≥ 25100	CC[C@H](C)[C@H](NC(=O)[C@H](Cc1ccccc1)NC(=O)[C@H](CCC(=O)O)NC(=O)[C@H](CCCCN)NC(=O)[C@H](C)NC(=O)[C@H](C)NC(=O)[C@H](CCC(=O)O)NC(=O)CNC(=O)[C@H](CCC(=O)O)NC(=O)[C@H](CC(C)C)NC(=O)[C@](C)(Cc1ccccc1)NC(=O)[C@H](CO)NC(=O)[C@](C)(CO)NC(=O)[C@@H](NC(=O)[C@H](CC(=O)O)NC(=O)[C@H](CO)NC(=O)[C@@H](NC(=O)[C@](C)(Cc1ccccc1)NC(=O)[C@H](CO)NC(=O)CNC(=O)[C@H](CCC(=O)O)NC(=O)C(C)(C)NC(=O)[C@@H](N)Cc1c[nH]cn1)[C@@H](C)O)C(C)C)C(=O)N[C@@H](CCCCNC(=O)COCCOCCNC(=O)COCCOCCNC(=O)CC[C@H](NC(=O)CCCCCCCCCCCCCCCCC(=O)O)C(=O)O)C(=O)N[C@@H](Cc1c[nH]c2ccccc12)C(=O)N[C@H](C(=O)N[C@H](C(=O)N[C@@H](CCC(=O)O)C(=O)NCC(=O)NCC(N)=O)C(C)C)C(C)C [compound 65] (H-H[Aib]EGS[αMeF]TSDV[αMeS]S[αMeF]LEGEAAKEFIK([AEEA-AEEA-γGlu-C18 diacid])WVVEGG-NH2)

Source: patent publication US10414811B2, “Protease-resistant lipidated GLP-1 analogs” (MEDIMMUNE LIMITED, priority 2015, dated 2019)
